For 25 compounds, EC50 and IC50 results are on record in US10030016B2 (Sunesis Pharmaceuticals, Inc., priority 2009, dated 2018).

The test system of assay [1] is phospho-akt (Thr308) in PC-3 cells. The assay is described as follows: Inhibition of phospho-akt (Thr308) in PC-3 cells, MSD phospho-akt 308 ELISA kit. In kind it is cell-based. The settings on record: Homo sapiens, 2 hours, no serum, read-out: EC50. A digest of the protocol: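 Electrochemiluminescent MSD ELISA of Thr308-phosphorylated Akt after a 2 h serum-free compound exposure of PC-3 cells (15,000/well, plated overnight). Controls: DMSO (high), 5 μM wortmannin (low). Lysate binding overnight at 4 °C; detection antibody 1 h at room temperature.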
In general terms: In an ELISA, binding on a coated surface is turned into a signal by an enzyme label.

Another assay has as its target PDK1 (Homo sapiens (Human), UniProt O15530). As to the kind of experiment: PDK1 kinase assay (coupled PDK1/AKT/FAM-crosstide assay, IMAP fluorescence polarization). The format is biochemical. An outline of the steps: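 Coupled cascade: 0.75 nM PDK1 (51-359) → 10 nM AKT2 (140-467-PIFtide) → 100 nM FAM-crosstide. ATP 40 μM, 25° C, 30 min. IMAP FP (ex 485/em 530), 2 h binding. ΔmP vs conc, 4-param fit.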

Where [2] appears, read: inhibition of P308 Akt in PC-3 cells, MSD.
Where [3] appears, read: inhibition of phospo-PDK1 in vitro.
[4] abbreviates: inhibition of P308 Akt in PC-3 cells using MSD.

Structures can show the parent of a compound that is named as a salt. Where two headings read alike, the source gives them in different places. Some results are limits rather than exact numbers.

Chain of PDK1 (O15530 51-359): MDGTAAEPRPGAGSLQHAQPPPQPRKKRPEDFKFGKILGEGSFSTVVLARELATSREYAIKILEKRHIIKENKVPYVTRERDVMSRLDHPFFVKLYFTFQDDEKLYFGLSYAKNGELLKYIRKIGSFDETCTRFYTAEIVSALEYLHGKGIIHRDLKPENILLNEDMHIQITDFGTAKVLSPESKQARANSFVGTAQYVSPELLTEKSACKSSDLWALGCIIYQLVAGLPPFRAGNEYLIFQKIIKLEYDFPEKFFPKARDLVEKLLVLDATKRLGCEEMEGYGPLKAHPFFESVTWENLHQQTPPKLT

What is called EC50 is the concentration at which the effect is half-maximal. As usually defined, the IC50 is the point on the concentration scale where inhibition reaches its midpoint. High values mean weaker potency in that assay, low ones greater potency in that assay. `C[C@H](NC(=O)c1cccnc1NCc1ccc(-c2ccc3ncc4ncn(C)c4c3c2)s1)c1ccc(F)c(F)c1` [Example 2.25, (S)-N-(1-(3,4-difluorophenyl)ethyl)-2-(((5-(1-methyl-1H-imidazo[4,5-c]quinolin-8-yl)thiophen-2-yl)methyl)amino)nicotinamide]: the half-maximal effective concentration (EC50) in assay [1] (setting [2]) was below 1000 nM. The half-inhibitory concentration (IC50) against PDK1 (setting [3]) is below 100 nM.
The like results for `CCCNS(=O)(=O)c1cnc(NCc2ccc(-c3ccc4ncnc(N)c4c3)s2)c(C(=O)NCc2ccc(F)c(F)c2)c1` [Example 8.6.9, 2-(((5-(4-aminoquinazolin-6-yl)thiophen-2-yl)methyl)amino)-N-(3,4-difluorobenzyl)-5-(N-propylsulfamoyl) nicotinamide] were, in that order, 1000 to 10000 nM and 100 to 1000 nM.
Consider `C[C@H](NC(=O)c1cccnc1NC/C=C/c1ccc2c(c1)NC(=O)/C2=C\c1cnc[nH]1)c1ccc(F)c(F)c1` [Example 15.5, 2-((E)-3-((Z)-3-((1H-imidazol-5-yl)methylene)-2-oxoindolin-6-yl)allylamino)-N-((S)-1-(3,4-difluorophenyl)ethyl)nicotinamide], for which the EC50 in assay [1] (setting [2]) is below 1000 nM. The IC50 on PDK1 (setting [3]) is below 100 nM.
Consider `Cc1nc2cnc3ccc(-c4ccc(CNc5ncccc5C(=O)N[C@@H](C)c5ccc(F)cc5)s4)cc3c2n1C` [Example 2.19, (S)-2-(((5-(1,2-dimethyl-1H-imidazo[4,5-c]quinolin-8-yl)thiophen-2-yl)methyl)amino) N-(1-(4-fluorophenyl)ethyl) nicotinamide], for which, in assay [1] (setting [2]), the EC50 is below 1000 nM. On PDK1 (setting [3]), this compound registered a half-inhibitory concentration (IC50) of 100 to 1000 nM.
Consider `Nc1ncnc2ccc(-c3ccc(CNc4ncccc4C(=O)Nc4cccc(C(F)(F)F)c4)s3)cc12` [Example 3.53, 2-({[5-(4-aminoquinazolin-6-yl)thiophen-2-yl]methyl}amino)-N-[3-(trifluoromethyl)phenyl]pyridine-3-carboxamide (TFA salt)], for which the 50% effective concentration (EC50) in assay [1] (setting [2]) is above 10000 nM. On PDK1 (setting [3]), this compound gave a half-inhibitory concentration (IC50) above 5000 nM.
On to `C[C@H](NC(=O)c1cc(C#N)cnc1N[C@H](C)c1ccc(-c2cn(C)c3ncnc(N)c23)cc1)c1ccc(F)cc1` [Example 434, 2-{(R)-1-[4-(4-Amino-7-methyl-7H-pyrrolo[2,3-d]pyrimidin-5-yl)-phenyl]-ethylamino}-5-cyano-N-[(S)-1-(4-fluoro-phenyl)-ethyl]-nicotinamide], for which the concentration giving a half-maximal response (EC50) in assay [1] (setting [4]) is below 1000 nM. For the same compound, the half-inhibitory concentration (IC50) against PDK1 (inhibition of PDK1 in vitro) is below 100 nM.
Consider `Nc1ncnc2ccc(-c3cccc(CNc4ncccc4C(=O)NCc4ccc(F)c(F)c4)c3)cc12` [Example 6.1, 2-(3-(4-aminoquinazolin-6-yl)benzylamino)-N-(3,4-difluorobenzyl)nicotinamide], for which the half-maximal effective concentration (EC50) in assay [1] (setting [2]) was in the range of 1000 to 10000 nM. The IC50 against PDK1 (setting [3]) is below 100 nM.
For `O=C(NCc1ccc(F)c(F)c1)c1cccnc1NCc1ccc(-c2ccc3ncnc(N4CCC4)c3c2)s1` [Example 4.9, 2-(((5-(4-(azetidin-1-yl)quinazolin-6-yl)thiophen-2-yl)methyl)amino)-N-(3,4-difluorobenzyl)nicotinamide], the concentration for a half-maximal effect (EC50) in assay [1] (setting [2]) lay in the range of 1000 to 10000 nM. The same compound had an IC50 on PDK1 (setting [3]) below 100 nM.
`C[C@H](NC(=O)c1nc(C#N)cnc1NCC1CCC(c2cnc3[nH]nc(N)c3c2)CC1)c1ccc(F)c(F)c1` (stereo partly drawn) [Example 60, (S)-3-((4-(3-amino-1H-pyrazolo[3,4-b]pyridin-5-yl)cyclohexyl)methylamino)-6-cyano-N-(1-(3,4-difluorophenyl)ethyl)pyrazine-2-carboxamide]: in assay [1] (setting [4]), the 50% effective concentration (EC50) was below 1000 nM. Also, the 50% inhibitory concentration (IC50) against PDK1 (inhibition of PDK1 in vitro) was below 100 nM.
Turning to `C[C@H](NC(=O)c1cccnc1N[C@@H](COc1ccc2[nH]c(=O)[nH]c2c1)c1ccccc1)c1ccc(F)c(F)c1` [Example 16.3], in assay [1] (setting [2]), the EC50 lay within 1000 to 10000 nM. Moreover, the IC50 at PDK1 (setting [3]) was 100 to 1000 nM.
In the case of `Cc1cc(N)ncc1-c1ccc(CNc2ncc(C#N)cc2C(=O)N[C@@H](C)c2ccc(F)cc2)cc1` [Example 121, (S)-2-(4-(6-amino-4-methylpyridin-3-yl)benzylamino)-5-cyano-N-(1-(4-fluorophenyl)ethyl) nicotinamide], the EC50 in assay [1] (setting [4]) is above 10000 nM. For the same compound, at PDK1 (inhibition of PDK1 in vitro), the half-maximal inhibitory concentration (IC50) lay within 100 to 1000 nM.
In the case of `C[C@H](NC(=O)c1cc(C(F)(F)F)cnc1NCc1ccc(-c2ccc3ncnc(N)c3c2)s1)c1ccc(F)cc1` [Example 8.12.5, 2-({[5-(4-aminoquinazolin-6-yl)thiophen-2-yl]methyl}amino)-N-[(1S)-1-(4-fluorophenyl)ethyl]-5-(trifluoromethyl)pyridine-3-carboxamide], the 50% effective concentration (EC50) in assay [1] (setting [2]) lay in the range of 1000 to 10000 nM. Besides, at PDK1 (setting [3]), the IC50 was below 100 nM.
Take `Nc1cnc(NCc2ccc(-c3ccc4ncnc(N)c4c3)s2)c(C(=O)NCc2ccc(F)c(F)c2)c1` [Ex. 8.4, 2-({[5-(4-aminoquinazolin-6-yl)thiophen-2-yl]methyl}amino)-N-(3,4-difluorobenzyl)-5-aminopyridine-3-carboxamide]: the EC50 in assay [1] (setting [2]) lay in the range of 1000 to 10000 nM. The compound also registered an IC50 against PDK1 (setting [3]) below 100 nM.
For the compound `C[C@H](NC(=O)c1cccnc1NCCOc1ccc2cc[nH]c2c1)c1ccc(F)c(F)c1` [Example 19.1, (S)-2-(2-(1H-indol-6-yloxy)ethylamino)-N-(1-(3,4-difluorophenyl)ethyl)nicotinamide], the EC50 in assay [1] (setting [2]) was above 10000 nM. Moreover, the half-inhibitory concentration (IC50) against PDK1 (setting [3]) was above 5000 nM.
Take `C[C@H](NC(=O)c1cccnc1NCc1ccc(-c2cn(C3CCC3)c3ncnc(N)c23)cc1)c1ccc(F)cc1` [Example 346, (S)-2-(4-(4-amino-7-cyclobutyl-7H-pyrrolo [2,3-d]pyrimidin-5-yl)benzylamino)-N-(1-(4-fluorophenyl)ethyl)nicotinamide]: the EC50 in assay [1] (PC-3, 2 h, inhibition of P308 Akt in PC-3 cells using MSD) was below 1000 nM. In addition, the IC50 at PDK1 (inhibition of PDK1 in vitro) lay within 100 to 1000 nM.
Regarding `CS(=O)(=O)Nc1cnc(NCc2ccc(-c3ccc4ncnc(N)c4c3)s2)c(C(=O)NCc2ccc(F)c(F)c2)c1` [Ex. 8.6.1, 2-({[5-(4-aminoquinazolin-6-yl)thiophen-2-yl]methyl}amino)-N-(3,4-difluorobenzyl)-5-[(methylsulfonyl)amino]pyridine-3-carboxamide], in assay [1] (setting [2]), the EC50 was below 1000 nM. For the same compound, the IC50 at PDK1 (setting [3]) is below 100 nM.
With `Cn1ccc(NC(=O)c2cc(C(F)(F)F)cnc2NCc2ccc(-c3cnc4[nH]nc(N)c4c3)cc2)n1` [Example 307, 2-(4-(3-amino-1H-pyrazolo [3,4-b]pyridin-5-yl)benzylamino)-N-(1-methyl-1H-pyrazol-3-yl)-5-(trifluoromethyl)nicotinamide], the EC50 in assay [1] (setting [4]) is 1000 to 10000 nM. Also, the IC50 on PDK1 (inhibition of PDK1 in vitro) is 1000 to 5000 nM.
As to `Cn1cc(-c2ccc(CNc3ncc(C(F)(F)F)cc3C(=O)NCc3ccc(F)c(F)c3)cc2)c2c(N)ncnc21` [Example 331, 2-(4-(4-amino-7-methyl-7H-pyrrolo[2,3-d]pyrimidin-5-yl)-benzylamino)-N-(3,4-difluorobenzyl)-5-(trifluoromethyl)nicotinamide], in assay [1] (setting [4]), the EC50 is below 1000 nM. This compound also showed an IC50 against PDK1 (inhibition of PDK1 in vitro) below 100 nM.
In the case of `C[C@H](NC(=O)c1cc(C#N)cnc1NCc1ccc(-c2cnc(N)c(NCCN)n2)cc1)c1ccc(F)cc1` [Example 199, 2-{4-[5-Amino-6-(2-amino-ethylamino)-pyrazin-2-yl]-benzylamino}-5-cyano-N-[(S)-1-(4-fluoro-phenyl)-ethyl]-nicotinamide], the EC50 in assay [1] (setting [4]) is below 1000 nM. At PDK1 (inhibition of PDK1 in vitro), this compound displayed an IC50 below 100 nM.
The like results for `C[C@H](NC(=O)c1cc(C#N)cnc1NCc1ccc(-c2nn(C)c3ncnc(N)c23)cc1)c1ccc(F)cc1` [Example 98, (S)-2-(4-(4-amino-1-methyl-1H-pyrazolo[3,4-d]pyrimidin-3-yl)benzylamino)-5-cyano-N-(1-(4-fluorophenyl)ethyl)nicotinamide] were, in that order, 1000 to 10000 nM and below 100 nM.
Regarding `C[C@H](NC(=O)c1cc(C#N)cnc1NCc1ccc(-c2cnc(N)c(CO)c2)cc1)c1ccc(F)cc1` [Example 136, (S)-2-(4-(6-amino-5-(hydroxymethyl)pyridin-3-yl)benzylamino)-5-cyano-N-(1-(4-fluorophenyl)ethyl)nicotinamide], the EC50 in assay [1] (setting [4]) is 1000 to 10000 nM. Also, the concentration for half-maximal inhibition (IC50) at PDK1 (inhibition of PDK1 in vitro) is below 100 nM.
On to `Nc1n[nH]c2ncc(-c3ccc(CNc4ncc(C(F)(F)F)cc4C(=O)Nc4ccc(F)cc4)cc3)nc12` [Example 184], for which, in assay [1] (setting [4]), the EC50 is below 1000 nM. Further, the IC50 against PDK1 (inhibition of PDK1 in vitro) was below 100 nM.
For `Nc1n[nH]c2ncc(-c3ccc(CNc4ncc(C(F)(F)F)cc4C(=O)Nc4ccc(F)c(F)c4)cc3)cc12` [Example 263, 2-(4-(3-amino-1H-pyrazolo [3,4-b]pyridin-5-yl)benzylamino)-N-(3,4-difluorophenyl)-5-(trifluoromethyl) nicotinamide], in that order: below 1000 nM and below 100 nM.
For `Nc1n[nH]c2ncc(-c3ccc(CNc4ncc(C(F)(F)F)cc4C(=O)NC4CCCCC4)cc3)cc12` [Example 297, 2-(4-(3-amino-1H-pyrazolo [3,4-b]pyridin-5-yl)benzylamino)-N-cyclohexyl-5-(trifluoromethyl)nicotinamide], in that order: below 1000 nM and below 100 nM.
`C[C@H](NC(=O)c1cccnc1NCc1cn(-c2ccc3[nH]c(=O)[nH]c3c2)nn1)c1ccc(F)c(F)c1` [Example 9.2, (S)-N-(1-(3,4-difluorophenyl)ethyl)-2-(((1-(2-oxo-2,3-dihydro-1H-benzo[d]imidazol-5-yl)-1H-1,2,3-triazol-4-yl)methyl)amino) nicotinamide]: in assay [1] (setting [2]), the EC50 is above 10000 nM. Besides, on PDK1 (setting [3]), the half-inhibitory concentration (IC50) is above 5000 nM.
